Measured values reported in ChEMBL document CHEMBL4828735, “Discovery of N-((3S,4S)-4-(3,4-Difluorophenyl)piperidin-3-yl)-2-fluoro-4-(1-methyl-1H-pyrazol-5-yl)benzamide (Hu7691), a Potent and Selective Akt Inhibitor That Enables Decrease of Cutaneous Toxicity” (J Med Chem, 2021).
Blank lines part the entries; values can stand above or below the compound they belong to. The source made the active and inactive calls. No cut-off for these calls is given here.

Tests used:
HGC-27 = test: Antiproliferative activity against human HGC-27 cells assessed as inhibition of cell growth incubated for 72 hrs by SRB assay; format: functional, cell-based; conditions: HGC-27, 72 h
[1] = molecular target: RAC-alpha serine/threonine-protein kinase (Homo sapiens, UniProt P31749); test: Inhibition of N-terminal GST-tagged human AKT1 (104 to 408 residues) expressed in baculovirus infected Sf21 cells incubated for 1 hr in presence of ATP by mobility shift assay
786-0 [2] = test: Antiproliferative activity against human 786-0 cells assessed as inhibition of cell growth incubated for 72 hrs by SRB assay; format: functional, cell-based; conditions: 786-0, 72 h
KHOS/NP [3] = test: Antiproliferative activity against human KHOS cells assessed as inhibition of cell growth incubated for 72 hrs by SRB assay; format: functional, cell-based
hERG (KCNH2) = hERG (KCNH2) (Homo sapiens, UniProt Q12809); test: Inhibition of human ERG expressed in HEK293 cells at 3 uM by whole cell patch clamp method relative to control; format: cell-based; conditions: HEK293 cells expressing hERG
HaCaT [4] = test: Induction of apoptosis in human HaCaT cells transfected with shAKT3 assessed as early apoptotic cells at 9 uM by flow cytometry analysis (reference value: 0.44%); format: functional
786-0 [5] = test: Antiproliferative activity against human 786-0 cells assessed as inhibition of cell growth incubated for 72 hrs by SRB method; format: functional, cell-based; conditions: 786-0, 72 h
NCI-H1975 = test: Antiproliferative activity against human NCI-H1975 cells assessed as inhibition of cell growth incubated for 72 hrs by SRB method; format: functional, cell-based; conditions: NCI-H1975, 72 h
OS-RC-2 = test: Antiproliferative activity against human OS-RC-2 cells assessed as inhibition of cell growth incubated for 72 hrs by SRB method; format: functional, cell-based; conditions: OS-RC-2, 72 h
HaCaT [6] = test: Induction of apoptosis in human HaCaT cells transfected with shAKT2 assessed as viable cells at 9 uM by flow cytometry analysis (reference value: 79.95%); format: functional; conditions: read-out: Activity
HaCaT [7] = test: Induction of apoptosis in human HaCaT cells assessed as late apoptotic cells at 9 uM by flow cytometry analysis (reference value: 17.13%); format: functional
HaCaT [8] = test: Induction of apoptosis in human HaCaT cells transfected with shAKT2 assessed as decrease in cleaved caspase 3 level by Western blot analysis; format: functional, cell-based
HaCaT [9] = test: Induction of apoptosis in human HaCaT cells transfected with shAKT3 assessed as necrotic cells at 9 uM by flow cytometry analysis (reference value: 3.84%); format: functional
MDA-MB-231 = test: Antiproliferative activity against human MDA-MB-231 cells assessed as inhibition of cell growth incubated for 72 hrs by SRB method; format: functional, cell-based; conditions: MDA-MB-231, 72 h
PC-3 = test: Antiproliferative activity against human PC3 cells assessed as inhibition of cell growth incubated for 72 hrs by SRB method; format: functional, cell-based; conditions: PC-3, 72 h
HaCaT [10] = test: Induction of apoptosis in human HaCaT cells assessed as early apoptotic cells at 9 uM by flow cytometry analysis (reference value: 0.54%); format: functional
OVCAR-8 = test: Antiproliferative activity against human OVCAR-8 cells assessed as inhibition of cell growth incubated for 72 hrs by SRB method; format: functional, cell-based; conditions: OVCAR-8, 72 h
U-251 = test: Antiproliferative activity against human U251 cells assessed as inhibition of cell growth incubated for 72 hrs by SRB method; format: functional, cell-based; conditions: U-251, 72 h
HT-29 = test: Antiproliferative activity against human HT-29 cells assessed as inhibition of cell growth incubated for 72 hrs by SRB method; format: functional, cell-based; conditions: HT-29, 72 h
HaCaT [11] = test: Induction of apoptosis in human HaCaT cells transfected with shAKT1 assessed as early apoptotic cells at 9 uM by flow cytometry analysis (reference value: 0.54%); format: functional
A549 = test: Antiproliferative activity against human A549 cells assessed as inhibition of cell growth incubated for 72 hrs by SRB method; format: functional, cell-based; conditions: A549, 72 h
HaCaT [12] = test: Induction of apoptosis in human HaCaT cells assessed as necrotic cells at 9 uM by flow cytometry analysis (reference value: 3.17%); format: functional
HaCaT [13] = test: Induction of apoptosis in human HaCaT cells transfected with shAKT2 assessed as early apoptotic cells at 9 uM by flow cytometry analysis (reference value: 0.38%); format: functional
SMMC-7721 = test: Antiproliferative activity against human SMMC-7721 cells assessed as inhibition of cell growth incubated for 72 hrs by SRB method; format: functional, cell-based; conditions: SMMC-7721, 72 h
HaCaT [14] = test: Induction of apoptosis in human HaCaT cells transfected with shAKT3 assessed as late apoptotic cells at 9 uM by flow cytometry analysis (reference value: 17.55%); format: functional
HaCaT [15] = test: Induction of apoptosis in human HaCaT cells transfected with shAKT1 assessed as necrotic cells at 9 uM by flow cytometry analysis (reference value: 3.82%); format: functional
HaCaT [16] = test: Induction of apoptosis in human HaCaT cells transfected with shAKT1 assessed as viable cells at 9 uM by flow cytometry analysis (reference value: 77.12%); format: functional; conditions: read-out: Activity
HaCaT [17] = test: Induction of apoptosis in human HaCaT cells assessed as viable cells at 9 uM by flow cytometry analysis (reference value: 79.16%); format: functional; conditions: read-out: Activity
HaCaT [18] = test: Antiproliferative activity against human HaCaT cells assessed as inhibition of cell growth incubated for 72 hrs by SRB assay; format: cell-based
U-87 MG = test: Antiproliferative activity against human U-87MG cells assessed as inhibition of cell growth incubated for 72 hrs by SRB method; format: functional, cell-based, U-87MG ATCC
769-P = test: Antiproliferative activity against human 769-P cells assessed as inhibition of cell growth incubated for 72 hrs by SRB method; format: functional, cell-based
Bel-7402 = test: Antiproliferative activity against human Bel-7402 cells assessed as inhibition of cell growth incubated for 72 hrs by SRB method; format: functional, cell-based; conditions: Bel-7402, 72 h
KHOS/NP [19] = test: Antiproliferative activity against human KHOS cells assessed as inhibition of cell growth incubated for 72 hrs by SRB method; format: functional, cell-based
HaCaT [20] = test: Induction of apoptosis in human HaCaT cells transfected with shAKT3 assessed as viable cells at 9 uM by flow cytometry analysis (reference value: 78.17%); format: functional; conditions: read-out: Activity
LNCaP = test: Antiproliferative activity against human LNCaP cells assessed as inhibition of cell growth incubated for 72 hrs by SRB method; format: functional, cell-based
HepG2 = test: Antiproliferative activity against human HepG2 cells assessed as inhibition of cell growth incubated for 72 hrs by SRB method; format: functional, cell-based; conditions: HepG2, 72 h
786-0 [21] = test: Antitumor activity against human 786-0 cells xenografted in dosed BALB/c nude mouse assessed as tumor growth inhibition at 50 mg/kg, ig administered once daily for 22 days; format: functional; conditions: 786-0, po, 528 h, time 22 day, read-out: TGI
KHOS/NP [22] = test: Antitumor activity against human KHOS cells xenografted in dosed BALB/c nude mouse assessed as tumor growth inhibition at 50 mg/kg, ig administered once daily for 22 days; format: functional; conditions: po, 528 h, time 22 day, read-out: TGI
HaCaT [23] = test: Induction of apoptosis in human HaCaT cells transfected with shAKT1 assessed as late apoptotic cells at 9 uM by flow cytometry analysis (reference value: 18.52%); format: functional
HaCaT [24] = test: Induction of apoptosis in human HaCaT cells transfected with shAKT2 assessed as late apoptotic cells at 9 uM by flow cytometry analysis (reference value: 16.77%); format: functional
SK-OV-3 = test: Antiproliferative activity against human SK-OV-3 cells assessed as inhibition of cell growth incubated for 72 hrs by SRB method; format: functional, cell-based; conditions: SK-OV-3, 72 h
[25] = Antiproliferative activity against human 95-D cells assessed as inhibition of cell growth incubated for 72 hrs by SRB method; format: functional, cell-based
HaCaT [26] = test: Induction of apoptosis in human HaCaT cells transfected with shAKT2 assessed as late apoptotic cells at 9 uM by flow cytometry analysis (reference value: 2.90%); format: functional

RAC-alpha serine/threonine-protein kinase, sequence (P31749 whole entry, the tested form may be a part): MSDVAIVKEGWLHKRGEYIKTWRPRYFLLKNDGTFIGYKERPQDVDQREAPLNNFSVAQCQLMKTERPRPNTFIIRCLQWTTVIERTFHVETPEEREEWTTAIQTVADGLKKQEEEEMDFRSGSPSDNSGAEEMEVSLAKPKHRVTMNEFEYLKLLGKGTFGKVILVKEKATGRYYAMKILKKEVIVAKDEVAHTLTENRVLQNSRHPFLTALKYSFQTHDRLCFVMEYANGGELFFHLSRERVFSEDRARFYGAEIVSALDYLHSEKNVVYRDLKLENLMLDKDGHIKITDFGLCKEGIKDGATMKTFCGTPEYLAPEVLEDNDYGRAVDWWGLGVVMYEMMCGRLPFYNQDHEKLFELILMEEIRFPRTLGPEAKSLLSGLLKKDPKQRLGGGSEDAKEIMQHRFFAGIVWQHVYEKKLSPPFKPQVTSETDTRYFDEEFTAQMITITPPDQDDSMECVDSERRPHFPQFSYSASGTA
hERG (KCNH2), sequence (Q12809 whole entry): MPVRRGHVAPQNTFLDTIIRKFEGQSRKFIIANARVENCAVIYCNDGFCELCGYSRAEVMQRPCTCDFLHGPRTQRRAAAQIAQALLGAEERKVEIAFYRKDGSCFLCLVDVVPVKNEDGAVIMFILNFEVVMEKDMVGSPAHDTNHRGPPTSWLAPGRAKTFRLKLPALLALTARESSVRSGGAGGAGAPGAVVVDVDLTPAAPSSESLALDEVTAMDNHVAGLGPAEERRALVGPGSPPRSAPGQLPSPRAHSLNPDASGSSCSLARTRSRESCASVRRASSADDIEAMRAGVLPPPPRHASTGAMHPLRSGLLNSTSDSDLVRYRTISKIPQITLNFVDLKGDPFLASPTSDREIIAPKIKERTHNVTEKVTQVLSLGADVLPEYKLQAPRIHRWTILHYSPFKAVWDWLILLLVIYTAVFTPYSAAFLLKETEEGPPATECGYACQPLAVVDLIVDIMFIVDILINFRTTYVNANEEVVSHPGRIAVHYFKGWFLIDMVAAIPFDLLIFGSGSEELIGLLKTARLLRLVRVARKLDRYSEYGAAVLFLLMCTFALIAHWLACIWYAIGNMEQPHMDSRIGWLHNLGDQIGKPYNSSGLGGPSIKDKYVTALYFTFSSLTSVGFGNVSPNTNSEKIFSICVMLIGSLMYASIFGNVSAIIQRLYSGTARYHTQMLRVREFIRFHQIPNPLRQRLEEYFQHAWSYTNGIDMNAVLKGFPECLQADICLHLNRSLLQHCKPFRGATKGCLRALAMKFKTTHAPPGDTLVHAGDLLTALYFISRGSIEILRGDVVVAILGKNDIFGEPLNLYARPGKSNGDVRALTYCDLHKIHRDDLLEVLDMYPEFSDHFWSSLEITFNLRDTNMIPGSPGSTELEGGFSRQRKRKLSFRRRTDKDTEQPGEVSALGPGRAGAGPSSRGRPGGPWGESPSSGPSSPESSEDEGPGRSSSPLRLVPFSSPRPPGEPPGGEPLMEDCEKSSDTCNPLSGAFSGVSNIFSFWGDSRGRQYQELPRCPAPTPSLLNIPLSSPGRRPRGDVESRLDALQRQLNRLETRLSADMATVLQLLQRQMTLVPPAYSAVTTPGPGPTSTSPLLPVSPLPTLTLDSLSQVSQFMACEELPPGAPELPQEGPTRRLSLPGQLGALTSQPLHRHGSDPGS

IC50 [1]: 47 nM
IC50 (786-0 [2]): 2.2 µM
SMILES: Cn1nccc1-c1cc(F)c(C(=O)N[C@@H]2CNCC[C@H]2c2ccc(F)c(F)c2)c(Cl)c1
IC50 (HGC-27): 1700 nM
IC50 (KHOS/NP [3]): 3.89 µM

IC50 [1]: 66.2 nM
IC50 (786-0 [2]): 1.9 µM
SMILES: Cn1ncc(Br)c1-c1cc(F)c(C(=O)N[C@@H]2CNCC[C@H]2c2ccc(F)c(F)c2)cc1F
IC50 (HGC-27): 1790 nM
IC50 (KHOS/NP [3]): 3.06 µM

IC50 [1]: 137 nM
IC50 (786-0 [2]): 3.21 µM
SMILES: Cn1ncc(Br)c1-c1cc(F)c(C(=O)N[C@@H]2CNCC[C@H]2c2ccc(F)c(F)c2)c(Cl)c1
IC50 (HGC-27): 3280 nM
IC50 (KHOS/NP [3]): 3.61 µM

IC50 [1]: 35.3 nM
IC50 (786-0 [2]): 7.81 µM
SMILES: Cn1nccc1-c1cc(F)c(C(=O)N[C@@H]2CNCC[C@H]2c2ccc(F)cc2)cc1F
IC50 (HGC-27): 3360 nM
IC50 (KHOS/NP [3]): 17.6 µM

IC50 [1]: 83 nM
IC50 (786-0 [2]): 7.15 µM
SMILES: O=C(N[C@@H]1CNCC[C@H]1c1ccc(F)c(F)c1)c1ccc(-c2ccn[nH]2)cc1F
IC50 (HGC-27): 4340 nM
IC50 (KHOS/NP [3]): 10.7 µM

IC50 [1]: 1.8 nM
IC50 (786-0 [2]): 1.01 µM
SMILES: Cn1nccc1-c1ccc(C(=O)N[C@@H]2CNCC[C@H]2c2cc(F)cc(F)c2)cc1F
IC50 (HGC-27): 150 nM
inhibition at 3 µM (hERG (KCNH2)): 26.4%
IC50 (KHOS/NP [3]): 7.27 µM

IC50 (786-0 [5]): 23.3 µM
IC50 (NCI-H1975): 8.23 µM
IC50 (MDA-MB-231): 60.5 µM
IC50 (PC-3): 82.6 µM
IC50 (OVCAR-8): 4.48 µM
IC50 (U-251): 14.2 µM
IC50 (HT-29): 36.9 µM
IC50 (A549): 23.7 µM
IC50 (SMMC-7721): 84.1 µM
IC50 (U-87 MG): 50.6 µM
IC50 (Bel-7402): 49.6 µM
IC50 (LNCaP): 460 nM
IC50 (HepG2): 6.7 µM
IC50 (SK-OV-3): 6.32 µM
SMILES: NC1(C(=O)N[C@@H](CCO)c2ccc(Cl)cc2)CCN(c2nc[nH]c3nccc2-3)CC1 [CAPIVASERTIB]
Activity (HaCaT [4]): 1.27%
IC50 (OS-RC-2): 53.4 µM
viability at 9 µM (HaCaT [6]): 70.3%
Activity (HaCaT [7]): 47.55%
Activity (HaCaT [8]): Active
Activity (HaCaT [9]): 6.23%
Activity (HaCaT [10]): 1.34%
Activity (HaCaT [11]): 1.44%
Activity (HaCaT [12]): 7.13%
Activity (HaCaT [13]): 0.79%
Activity (HaCaT [14]): 46.52%
Activity (HaCaT [15]): 5.98%
viability at 9 µM (HaCaT [16]): 44.7%
viability at 9 µM (HaCaT [17]): 44%
IC50 (HaCaT [18]): 4.2 µM
IC50 (769-P): 10.8 µM
IC50 (KHOS/NP [19]): 40.4 µM
viability at 9 µM (HaCaT [20]): 46%
inhibition in vivo at 50 mg/kg (786-0 [21]): 47.1%
inhibition in vivo at 50 mg/kg (KHOS/NP [22]): 33.9%
Activity (HaCaT [23]): 47.84%
Activity (HaCaT [24]): 25.71%
IC50 [25]: 2320 nM
Activity (HaCaT [26]): 3.15%

IC50 [1]: 24 nM
IC50 (786-0 [2]): 4.07 µM
SMILES: Cn1nccc1-c1ccc(C(=O)N[C@@H]2CNCC[C@H]2c2ccc(F)c(F)c2)c(Cl)c1
IC50 (HGC-27): 1400 nM
IC50 (KHOS/NP [3]): 11.7 µM

IC50 [1]: 9.2 nM
IC50 (786-0 [2]): 5.05 µM
SMILES: Cn1nccc1-c1cc(F)c(C(=O)N[C@@H]2CNCC[C@H]2c2ccc(F)c(F)c2)cc1F
IC50 (HGC-27): 1450 nM
inhibition at 3 µM (hERG (KCNH2)): 27.2%
IC50 (KHOS/NP [3]): 18.4 µM

IC50 [1]: 142 nM
IC50 (786-0 [2]): 3.17 µM
SMILES: Cn1ncc(Cl)c1-c1cc(F)c(C(=O)N[C@@H]2CNCC[C@H]2c2ccc(F)c(F)c2)c(Cl)c1
IC50 (HGC-27): 3060 nM
IC50 (KHOS/NP [3]): 3.67 µM
